For 15 compounds, Dmax and DC50 results are on record in patent publication US11986532B2 (Arvinas Operations, Inc., priority 2021, dated 2024).

The assay has as its target T1, BCL6 (Homo sapiens, UniProt P41182).
T1 construct: endogenous in cells; host or cells: T47D breast cancer epithelial cells
The assay can be described thus: Immunofluorescence protocol for high content imaging of BCL6 (degradation) in T47D cells, 3 days compound treatment. The conditions noted are these: for Dmax: T47D, read-out: Mean Dmax (%)** category; for DC50: read-out: Mean DC50 (nM)* category. Type of assay: cell-based. In outline:
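Read-out: high-content imaging of anti-BCL6 immunofluorescence (Alexa-488 secondary) with CellMask and Hoechst counterstains, 10×, 4 fields/well. Cells had 3 days of compound exposure at 37° C, 5% CO2, 11-point 3-fold series from a final top of 0.1 or 1 μM.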

As a reminder, the Dmax is the largest share of the target that was removed. Usually DC50 stands for the concentration at which degradation of the target reaches its halfway point. In the case of `CNC(=O)COc1cc2c(F)c(Nc3nc(N4CCC(CN5CCC6(CC5)CN(c5ccc7c(c5)C(=O)N(C5CCC(=O)NC5=O)C7=O)C6)CC4)ncc3Cl)ccc2n(C(C)C)c1=O` (stereo not drawn) [Compound 347, 2-{[6-({5-chloro-2-[4-({2-[2-(2,6-dioxopiperidin-3-yl)-1,3-dioxo-2,3-dihydro-1H-isoindol-5-yl]-2,7-diazaspiro[3.5]nonan-7-yl}methyl)piperidin-1-yl]pyrimidin-4-yl}amino)-5-fluoro-2-oxo-1-(propan-2-yl)-1,2-dihydroquinolin-3-yl]oxy}-N-methylacetamide], the Dmax is not below 70% and the DC50 was less than 10 nM.

Take `CNC(=O)COc1cc2cc(Nc3nc(N4CCC(O[C@H]5C[C@H](N6CCC(c7cc8c(cc7OC)C(=O)N(C7CCC(=O)NC7=O)C8)CC6)C5)CC4)ncc3Cl)ccc2n(C(C)C)c1=O` (stereo partly drawn) [Compound 348, 2-({6-[(5-chloro-2-{4-[(1r,3r)-3-{4-[2-(2,6-dioxopiperidin-3-yl)-6-methoxy-1-oxo-2,3-dihydro-1H-isoindol-5-yl]piperidin-1-yl}cyclobutoxy]piperidin-1-yl}pyrimidin-4-yl)amino]-2-oxo-1-(propan-2-yl)-1,2-dihydroquinolin-3-yl}oxy)-N-methylacetamide]: the Dmax is not below 70% and the DC50 is less than 10 nM.

Consider `CNC(=O)COc1cc2cc(Nc3nc(N4CCC(O[C@H]5C[C@H](N6CCC7(CCN(c8ccc9c(c8)CN(C8CCC(=O)NC8=O)C9=O)CC7)CC6)C5)CC4)ncc3Cl)ccc2n(C(C)C)c1=O` (stereo partly drawn) [Compound 349, 2-({6-[(5-chloro-2-{4-[(1r,3r)-3-{9-[2-(2,6-dioxopiperidin-3-yl)-1-oxo-2,3-dihydro-1H-isoindol-5-yl]-3,9-diazaspiro [5.5]undecan-3-yl}cyclobutoxy]piperidin-1-yl}pyrimidin-4-yl)amino]-2-oxo-1-(propan-2-yl)-1,2-dihydroquinolin-3-yl}oxy)-N-methylacetamide], for which the Dmax is not below 70% and the DC50 is less than 10 nM.

Turning to `CNC(=O)COc1cc2cc(Nc3nc(N4CCC(O[C@H]5C[C@H](N6CC7(CCN(c8ccc9c(c8)C(=O)N(C8CCC(=O)NC8=O)C9=O)C7)C6)C5)CC4)ncc3Cl)ccc2n(C(C)C)c1=O` (stereo partly drawn) [Compound 350, 2-({6-[(5-chloro-2-{4-[(1r,3r)-3-{6-[2-(2,6-dioxopiperidin-3-yl)-1,3-dioxo-2,3-dihydro-1H-isoindol-5-yl]-2,6-diazaspiro [3.4]octan-2-yl}cyclobutoxy]piperidin-1-yl}pyrimidin-4-yl)amino]-2-oxo-1-(propan-2-yl)-1,2-dihydroquinolin-3-yl}oxy)-N-methylacetamide], the Dmax was not below 70% and the DC50 was less than 10 nM.

As for `CNC(=O)COc1cc2cc(Nc3nc(N4CCC(O[C@H]5C[C@H](N6CC7(CCN(c8ccc9c(c8)CN(C8CCC(=O)NC8=O)C9=O)C7)C6)C5)CC4)ncc3Cl)ccc2n(C(C)C)c1=O` (stereo partly drawn) [Compound 351, 2-({6-[(5-chloro-2-{4-[(1r,3r)-3-{6-[2-(2,6-dioxopiperidin-3-yl)-1-oxo-2,3-dihydro-1H-isoindol-5-yl]-2,6-diazaspiro [3.4]octan-2-yl}cyclobutoxy]piperidin-1-yl}pyrimidin-4-yl)amino]-2-oxo-1-(propan-2-yl)-1,2-dihydroquinolin-3-yl}oxy)-N-methylacetamide], the maximal degradation (Dmax) is not below 70% and the 50% degradation concentration (DC50) is less than 10 nM.

Regarding `CNC(=O)COc1cc2cc(Nc3nc(N4CCC(CN5CCC6(CN(c7ccc8c(c7OC)CN(C7CCC(=O)NC7=O)C8=O)C6)C(F)(F)C5)CC4)ncc3Cl)ccc2n(C(C)C)c1=O` (stereo not drawn) [Compound 352, 2-{[6-({5-chloro-2-[4-({2-[2-(2,6-dioxopiperidin-3-yl)-4-methoxy-1-oxo-2,3-dihydro-1H-isoindol-5-yl]-5,5-difluoro-2,7-diazaspiro [3.5]nonan-7-yl}methyl)piperidin-1-yl]pyrimidin-4-yl}amino)-2-oxo-1-(propan-2-yl)-1,2-dihydroquinolin-3-yl]oxy}-N-methylacetamide], the Dmax is less than 50% and the 50% degradation concentration (DC50) lay in the range of 10 to 50 nM.

As for `CNC(=O)COc1cc2cc(Nc3nc(N4CCC(O[C@H]5C[C@H](N6CC7(CN(c8ccc9c(c8)CN(C8CCC(=O)NC8=O)C9=O)C7)C6)C5)CC4)ncc3Cl)ccc2n(C(C)C)c1=O` (stereo partly drawn) [Compound 353, 2-({6-[(5-chloro-2-{4-[(1r,3r)-3-{6-[2-(2,6-dioxopiperidin-3-yl)-1-oxo-2,3-dihydro-1H-isoindol-5-yl]-2,6-diazaspiro [3.3]heptan-2-yl}cyclobutoxy]piperidin-1-yl}pyrimidin-4-yl)amino]-2-oxo-1-(propan-2-yl)-1,2-dihydroquinolin-3-yl}oxy)-N-methylacetamide], the Dmax is not below 70% and the DC50 is less than 10 nM.

On to `CNC(=O)COc1cc2cc(Nc3nc(N4CCC(O[C@H]5C[C@H](N6CCC7(CCCN(c8ccc9c(c8)CN(C8CCC(=O)NC8=O)C9=O)C7)C6)C5)CC4)ncc3Cl)ccc2n(C(C)C)c1=O` (stereo partly drawn) [Compound 354, 2-({6-[(5-chloro-2-{4-[(1r,3r)-3-{7-[2-(2,6-dioxopiperidin-3-yl)-1-oxo-2,3-dihydro-1H-isoindol-5-yl]-2,7-diazaspiro[4.5]decan-2-yl}cyclobutoxy]piperidin-1-yl}pyrimidin-4-yl)amino]-2-oxo-1-(propan-2-yl)-1,2-dihydroquinolin-3-yl}oxy)-N-methylacetamide], for which the Dmax lay in the range of 50 to 70% and the DC50 is less than 10 nM.

Turning to `CNC(=O)COc1cc2cc(Nc3nc(N4CCC(O[C@H]5C[C@H](N6CCCC7(CCN(c8ccc9c(c8)C(=O)N(C8CCC(=O)NC8=O)C9=O)C7)C6)C5)CC4)ncc3Cl)ccc2n(C(C)C)c1=O` (stereo partly drawn) [Compound 355, 2-({6-[(5-chloro-2-{4-[(1r,3r)-3-{2-[2-(2,6-dioxopiperidin-3-yl)-1,3-dioxo-2,3-dihydro-1H-isoindol-5-yl]-2,7-diazaspiro[4.5]decan-7-yl}cyclobutoxy]piperidin-1-yl}pyrimidin-4-yl)amino]-2-oxo-1-(propan-2-yl)-1,2-dihydroquinolin-3-yl}oxy)-N-methylacetamide], the Dmax is not below 70% and the DC50 was less than 10 nM.

`CNC(=O)COc1cc2cc(Nc3nc(N4CCC(O[C@H]5C[C@H](N6CCCC7(CCN(c8ccc9c(c8)CN(C8CCC(=O)NC8=O)C9=O)C7)C6)C5)CC4)ncc3Cl)ccc2n(C(C)C)c1=O` (stereo partly drawn) [Compound 356, 2-({6-[(5-chloro-2-{4-[(1r,3r)-3-{2-[2-(2,6-dioxopiperidin-3-yl)-1-oxo-2,3-dihydro-1H-isoindol-5-yl]-2,7-diazaspiro [4.5]decan-7-yl}cyclobutoxy]piperidin-1-yl}pyrimidin-4-yl)amino]-2-oxo-1-(propan-2-yl)-1,2-dihydroquinolin-3-yl}oxy)-N-methylacetamide]: the Dmax is not below 70% and the DC50 was less than 10 nM.

With `CNC(=O)COc1cc2cc(Nc3nc(N4CCC(O[C@H]5C[C@H](N6CCC7(CC6)CN(c6ccc8c(c6)C(=O)N(C6CCC(=O)NC6=O)C8=O)C7)C5)CC4)ncc3Cl)ccc2n(C(C)C)c1=O` (stereo partly drawn) [Compound 357, 2-({6-[(5-chloro-2-{4-[(1r,3r)-3-{2-[2-(2,6-dioxopiperidin-3-yl)-1,3-dioxo-2,3-dihydro-1H-isoindol-5-yl]-2,7-diazaspiro [3.5]nonan-7-yl}cyclobutoxy]piperidin-1-yl}pyrimidin-4-yl)amino]-2-oxo-1-(propan-2-yl)-1,2-dihydroquinolin-3-yl}oxy)-N-methylacetamide], the Dmax is not below 70% and the DC50 is less than 10 nM.

As to `CNC(=O)COc1cc2cc(Nc3nc(N4CCC(CN5CCC6(CC5)CN(c5ccc7c(c5C)C(=O)N(C5CCC(=O)NC5=O)C7=O)C6)CC4)ncc3Cl)ccc2n(C(C)C)c1=O` (stereo not drawn) [Compound 358, 2-{[6-({5-chloro-2-[4-({2-[2-(2,6-dioxopiperidin-3-yl)-4-methyl-1,3-dioxo-2,3-dihydro-1H-isoindol-5-yl]-2,7-diazaspiro[3.5]nonan-7-yl}methyl)piperidin-1-yl]pyrimidin-4-yl}amino)-2-oxo-1-(propan-2-yl)-1,2-dihydroquinolin-3-yl]oxy}-N-methylacetamide], the Dmax was 50 to 70% and the DC50 was less than 10 nM.

For `CNC(=O)COc1cc2cc(Nc3nc(N4CCC(O[C@H]5C[C@H](N6CCC7(CCCN(c8ccc9c(c8)C(=O)N(C8CCC(=O)NC8=O)C9=O)C7)C6)C5)CC4)ncc3Cl)ccc2n(C(C)C)c1=O` (stereo partly drawn) [Compound 359, 2-({6-[(5-chloro-2-{4-[(1r,3r)-3-{7-[2-(2,6-dioxopiperidin-3-yl)-1,3-dioxo-2,3-dihydro-1H-isoindol-5-yl]-2,7-diazaspiro [4.5]decan-2-yl}cyclobutoxy]piperidin-1-yl}pyrimidin-4-yl)amino]-2-oxo-1-(propan-2-yl)-1,2-dihydroquinolin-3-yl}oxy)-N-methylacetamide], the Dmax is 50 to 70% and the 50% degradation concentration (DC50) fell in the range of 10 to 50 nM.

As for `CNC(=O)COc1cc2cc(Nc3nc(N4CCC(O[C@H]5C[C@H](N6CCC7(CCN(c8ccc9c(c8)C(=O)N(C8CCC(=O)NC8=O)C9=O)C7)CC6)C5)CC4)ncc3Cl)ccc2n(C(C)C)c1=O` (stereo partly drawn) [Compound 360, 2-({6-[(5-chloro-2-{4-[(1r,3r)-3-{2-[2-(2,6-dioxopiperidin-3-yl)-1,3-dioxo-2,3-dihydro-1H-isoindol-5-yl]-2,8-diazaspiro[4.5]decan-8-yl}cyclobutoxy]piperidin-1-yl}pyrimidin-4-yl)amino]-2-oxo-1-(propan-2-yl)-1,2-dihydroquinolin-3-yl}oxy)-N-methylacetamide], the Dmax is 50 to 70% and the DC50 is less than 10 nM.

For `CNC(=O)COc1cc2cc(Nc3nc(N4CCC(O[C@H]5C[C@H](N6CCC7(CCN(c8ccc9c(c8)CN(C8CCC(=O)NC8=O)C9=O)C7)CC6)C5)CC4)ncc3Cl)ccc2n(C(C)C)c1=O` (stereo partly drawn) [Compound 361, 2-({6-[(5-chloro-2-{4-[(1r,3r)-3-{2-[2-(2,6-dioxopiperidin-3-yl)-1-oxo-2,3-dihydro-1H-isoindol-5-yl]-2,8-diazaspiro [4.5]decan-8-yl}cyclobutoxy]piperidin-1-yl}pyrimidin-4-yl)amino]-2-oxo-1-(propan-2-yl)-1,2-dihydroquinolin-3-yl}oxy)-N-methylacetamide], the Dmax is 50 to 70% and the DC50 was less than 10 nM.
